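Cells were grown in 96-well plates and exposed to each compound for 48 hours at five concentrations; endpoints were interpolated linearly between bracketing concentrations, or set to the highest concentration if not reached. GI50 = concentration required for 50% inhibition of growth.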 Active and inactive are the calls of the source. Rule as the data show it: active = GI50 up to about 1.1 µM and inactive = higher.
Key:
Experiment in all cases: growth of human tumour cells (NCI), 48 h
SF-295 = tested on: SF-295
OVCAR-5 = tested on: OVCAR-5
HOP-92 = tested on: HOP-92
DLD-1 = tested on: DLD-1
OVCAR-3 = tested on: OVCAR-3
SK-OV-3 = tested on: SK-OV-3
A549 = tested on: A549
NCI-H23 = tested on: NCI-H23
DMS-273 = tested on: DMS-273
UACC-257 = tested on: UACC-257
U-251 = tested on: U-251
OVCAR-8 = tested on: OVCAR-8
SK-MEL-5 = tested on: SK-MEL-5
OVCAR-4 = tested on: OVCAR-4
LXFL 529 = tested on: LXFL 529
SK-MEL-2 = tested on: SK-MEL-2
SN12C = tested on: SN12C
COLO 205 = tested on: COLO 205
HOP-62 = tested on: HOP-62
HCT-116 = tested on: HCT-116
LOX IMVI = tested on: LOX IMVI
NCI-H522 = tested on: NCI-H522
MOLT-4 = tested on: MOLT-4
SNB-75 = tested on: SNB-75
NCI-H226 = tested on: NCI-H226
HOP-18 = tested on: HOP-18
EKVX = tested on: EKVX
K562 = tested on: K562
UACC-62 = tested on: UACC-62
SNB-19 = tested on: SNB-19
UO-31 = tested on: UO-31
RPMI-8226 = tested on: RPMI-8226
SNB-78 = tested on: SNB-78
RXF 631 = tested on: RXF 631
ACHN = tested on: ACHN
HCT-15 = tested on: HCT-15
XF498 = tested on: XF498
SW-620 = tested on: SW-620
TK-10 = tested on: TK-10
786-0 = tested on: 786-0
KM-20L2 = tested on: KM-20L2
HCC 2998 = tested on: HCC 2998
M14 = tested on: M14
SK-MEL-28 = tested on: SK-MEL-28
HT-29 = tested on: HT-29
SR = tested on: SR
SF-268 = tested on: SF-268
RXF 393 = tested on: RXF 393
CAKI-1 = tested on: CAKI-1
Malme-3M = tested on: Malme-3M
HL-60 = tested on: HL-60
NCI-H460 = tested on: NCI-H460
SF-539 = tested on: SF-539
CCRF-CEM = tested on: CCRF-CEM
DMS-114 = tested on: DMS-114
A498 = tested on: A498
KM12 = tested on: KM12
IGROV-1 = tested on: IGROV-1
M19-MEL = tested on: M19-MEL

`O=C1C=CC(=C(c2ccc(O)cc2)c2ccc(O)cc2)C=C1` [AURIN] was tested, and the GI50 (SF-295) was 12.5 µM (inactive), the GI50 (OVCAR-5) was 18.2 µM (inactive) and the GI50 (HOP-92) was 2.07 µM (inactive). The GI50 (DLD-1) was 10.3 µM (inactive), the GI50 (OVCAR-3) was 7 µM (inactive) and the GI50 (SK-OV-3) was 17.9 µM (inactive). The GI50 (A549) was 22 µM (inactive), the GI50 (NCI-H23) was 8.57 µM (inactive) and the GI50 (DMS-273) was 6.78 µM (inactive). The GI50 (UACC-257) was 9.68 µM (inactive), the GI50 (U-251) was 5.82 µM (inactive) and the GI50 (OVCAR-8) was 12.7 µM (inactive). For the same compound, the GI50 (SK-MEL-5) was 7.06 µM (inactive), the GI50 (OVCAR-4) was 14.4 µM (inactive) and the GI50 (LXFL 529) was 3.18 µM (inactive). For the same compound, the GI50 (SK-MEL-2) was 3.88 µM (inactive), the GI50 (SN12C) was 8.47 µM (inactive) and the GI50 (COLO 205) was 17.7 µM (inactive). For the same compound, the GI50 (HOP-62) was 20.2 µM (inactive), the GI50 (HCT-116) was 10.8 µM (inactive) and the GI50 (LOX IMVI) was 10 µM (inactive). For the same compound, the GI50 (NCI-H522) was 10.1 µM (inactive), the GI50 (MOLT-4) was 4.71 µM (inactive) and the GI50 (SNB-75) was 3.21 µM (inactive). For the same compound, the GI50 (NCI-H226) was 17.4 µM (inactive), the GI50 (HOP-18) was 16.4 µM (inactive) and the GI50 (EKVX) was 15.1 µM (inactive). For the same compound, the GI50 (K562) was 2.94 µM (inactive), the GI50 (UACC-62) was 3.91 µM (inactive) and the GI50 (SNB-19) was 15.6 µM (inactive). The GI50 (UO-31) was 17 µM (inactive), the GI50 (RPMI-8226) was 3.85 µM (inactive) and the GI50 (SNB-78) was 5.11 µM (inactive). For the same compound, the GI50 (RXF 631) was 15 µM (inactive), the GI50 (ACHN) was 15.2 µM (inactive) and the GI50 (HCT-15) was 14.4 µM. The GI50 (XF498) was 11.7 µM (inactive), the GI50 (SW-620) was 12.5 µM (inactive) and the GI50 (TK-10) was 19 µM (inactive). The GI50 (786-0) was 13.6 µM (inactive), the GI50 (KM-20L2) was 16.5 µM (inactive) and the GI50 (HCC 2998) was 14.4 µM (inactive). For the same compound, the GI50 (M14) was 13.3 µM (inactive), the GI50 (SK-MEL-28) was 12.1 µM (inactive) and the GI50 (HT-29) was 18.6 µM (inactive). For the same compound, the GI50 (SR) was 2.36 µM (inactive), the GI50 (SF-268) was 13.2 µM (inactive) and the GI50 (RXF 393) was 5.07 µM (inactive). The GI50 (CAKI-1) was 15.2 µM (inactive), the GI50 (Malme-3M) was 12 µM (inactive) and the GI50 (HL-60) was 2.86 µM (inactive). For the same compound, the GI50 (NCI-H460) was 15.8 µM (inactive), the GI50 (SF-539) was 11.3 µM (inactive) and the GI50 (CCRF-CEM) was 2.39 µM (inactive). For the same compound, the GI50 (DMS-114) was 2.4 µM (inactive), the GI50 (A498) was 17.7 µM (inactive) and the GI50 (KM12) was 12.8 µM (inactive). For the same compound, the GI50 (IGROV-1) was 13.6 µM (inactive).

In the case of `c1ccc2c(CN3CCC(C4CCN(Cc5cccc6ccccc56)CC4)CC3)cccc2c1`, the GI50 (SF-295) is reported as 7.64 µM (inactive), the GI50 (DLD-1) is reported as 2.09 µM (inactive) and the GI50 (OVCAR-3) is reported as 39.7 µM (inactive). For the same compound, the GI50 (SK-OV-3) was 21.1 µM (inactive), the GI50 (A549) was 38.3 µM (inactive) and the GI50 (DMS-273) was 6.73 µM (inactive). The GI50 (UACC-257) was 2.1 µM (inactive), the GI50 (U-251) was 11.3 µM (inactive) and the GI50 (SK-MEL-5) was 4.22 µM (inactive). The GI50 (LXFL 529) was 5.74 µM (inactive), the GI50 (SK-MEL-2) was 6.21 µM (inactive) and the GI50 (SN12C) was > 63 µM (inactive). The GI50 (COLO 205) was 1.72 µM (inactive), the GI50 (HOP-62) was 14.7 µM (inactive) and the GI50 (NCI-H522) was 12.9 µM (inactive). For the same compound, the GI50 (MOLT-4) was 5.7 µM (inactive), the GI50 (HOP-18) was 40.1 µM (inactive) and the GI50 (K562) was 1.53 µM (inactive). For the same compound, the GI50 (UACC-62) was 5.64 µM (inactive), the GI50 (RPMI-8226) was 3.66 µM (inactive) and the GI50 (SNB-78) was 23.7 µM (inactive). For the same compound, the GI50 (RXF 631) was 12.2 µM (inactive), the GI50 (ACHN) was 36.1 µM (inactive) and the GI50 (M19-MEL) was 6.64 µM (inactive). For the same compound, the GI50 (XF498) was 4.75 µM (inactive), the GI50 (TK-10) was 17.7 µM (inactive) and the GI50 (786-0) was 16 µM (inactive). The GI50 (KM-20L2) was 2.81 µM (inactive), the GI50 (HCC 2998) was 1.09 µM (active) and the GI50 (M14) was 1.92 µM (inactive). The GI50 (HT-29) was 3.11 µM (inactive), the GI50 (RXF 393) was 11.9 µM (inactive) and the GI50 (Malme-3M) was 2.4 µM (inactive). For the same compound, the GI50 (HL-60) was 1.98 µM (inactive), the GI50 (NCI-H460) was 19 µM (inactive) and the GI50 (DMS-114) was 2.64 µM (inactive).

Reference: ChEMBL document CHEMBL1201862, “PubChem BioAssay data set” (2004)
